From patent publication US11596622B2, “Mazindol treatment for heroin dependence and substance use disorder” (NLS Pharmaceutics AG, priority 2017, dated 2023)

Columns and labels:
Sprague-Dawley rats = assay: Naloxone precipitated withdrawal syndrome of heroin; format: in vivo; settings: for Abdominal constrictions score (Abd C) / Abnormal posture score (Ab P) / Chromodacryorrhea score (Chr) / Diarrhea score (Diarr) / Erection or ejaculation score (Er Ej) / Escape attempts score (Esc A) / Facial fasciculation or teeth chattering score (F F T C) / Global Score / Irritability score (Irrit) / Profuse salivation score (Pr Sal) / Ptosis score (Ptos) / Swallowing movements score (Sw M) / Weight loss score (W Los) / Wet dog shakes score (W D S): mean
Procedure: The abrupt cessation of chronic opiate use results in a well characterized withdrawal syndrome with symptoms that include pain sensitivity, dysphoria, irritability, restlessness, insomnia, diarrhea and hyperventilation. In the present model, the naloxone-precipitated withdrawal syndrome is measured in rodents. Animals are chronically treated with a drug, e.g. morphine or heroin. Opiate withdrawal syndrome is elicited by an acute injection of the opiate antagonist Naloxone.
The effect of mazindol on heroin withdrawal syndrome elicited by naloxone was examined in Sprague-Dawley rats using a method similar to the one used by Jiang et al. (10),
Animals were subdivided into two groups. One group received heroin two i.p. injections/day for 12 consecutive days and a single injection on the 13th day (total: 25 injections) as exposed in Table 3 group received saline instead of heroin following the same protocol.
On day 13, animals received treatments and were tested according to the following time schedule: • T=0: i.p. injection of heroin (15 mg/kg) or vehicle. • T=2.5 h: animals individually placed in a transparent Plexiglas observation boxes (40×40×40 cm). • T=3.5 h: i.p. injection of treatment (see below). • T=4 h: i.p. injection of naloxone (5 mg/kg), start of test: observation of withdrawal symptoms as indicated in Table 4. • T=5 h: end of test, animals placed back into their home cages.
Animals received the following treatments at T 3.5 h (i.e. 30 min before injection of naloxone and observation of symptoms): • 1) Animals treated with saline during the intoxication period (days 1-12) and at T0 on day 13: • Saline group (N=8): saline (0.9% NaCl). • 2) Animals treated with […] during the intoxication period (days 1-12) and at T0 on day 13: • Hero group (N=14): saline (0.9% NaCl). • Amph 1 group (N=4): D-amphetamine (1 mg/kg). • Maz 0.125 group (N=5): mazindol (0.125 mg/kg). • Maz 0.25 group (N=6): mazindol (0.25 mg/kg). • Maz 0.5 group (N=6): mazindol (0.5 mg/kg). • Maz 1 group (N=6): mazindol (1 mg/kg). • Maz 2 group (N=5): mazindol (2 mg/kg).
A weighting factor was ascribed for each sign from which a score was calculated.
Examples: • Body weight before naloxone injection=241 g; after naloxone injection=236 g: • Weight loss score=2=100×(241−236)/241 • Number of escape attempts=8: • Score for escape attempts=2 • Profuse salivation present: • Score for profuse salivation
A global withdrawal score was then calculated: • Global score=the sum of the scores

5-HT transporter(h) = target: T1, 5-HT transporter(h) (Homo sapiens, UniProt P31645); assay: Radioligand binding, 5-HT transporter (Eurofins CEREP); settings: 1.0 × 10^−05 M; antagonist radioligand; read-out: percent inhibition of the binding of a radioactively labeled ligand
T1 construct: Eurofins CEREP
T1 sequence (P31645 whole entry): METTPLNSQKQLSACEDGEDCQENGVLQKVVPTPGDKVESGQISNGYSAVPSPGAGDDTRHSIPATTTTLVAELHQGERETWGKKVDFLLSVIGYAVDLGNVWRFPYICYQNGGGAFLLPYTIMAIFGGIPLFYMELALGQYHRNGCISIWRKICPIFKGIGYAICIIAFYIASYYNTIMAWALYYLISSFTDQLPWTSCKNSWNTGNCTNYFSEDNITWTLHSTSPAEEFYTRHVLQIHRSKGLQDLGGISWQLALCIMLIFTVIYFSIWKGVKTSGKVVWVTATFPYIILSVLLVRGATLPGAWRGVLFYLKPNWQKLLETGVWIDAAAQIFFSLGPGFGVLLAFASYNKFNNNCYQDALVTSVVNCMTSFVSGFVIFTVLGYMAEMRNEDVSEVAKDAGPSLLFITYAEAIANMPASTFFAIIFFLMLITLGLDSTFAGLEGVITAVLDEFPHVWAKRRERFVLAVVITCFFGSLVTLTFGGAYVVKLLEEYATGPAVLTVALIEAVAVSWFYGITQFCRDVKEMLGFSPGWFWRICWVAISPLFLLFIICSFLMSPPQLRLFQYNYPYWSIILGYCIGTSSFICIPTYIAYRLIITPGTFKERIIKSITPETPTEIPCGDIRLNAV
Source text: (§1) Table A discloses mazindol and Met tested at […] and the compound binding calculated as a percent inhibition of the binding of a radioactively labeled ligand specific for each target (Eurofins CEREP, France).
(§2) An inhibition or stimulation of more than 50% is considered a significant effect of the test compounds. Fifty percent is a common cut-off for further investigation (i.e. determination of IC50 or EC50 values from concentration-response curves).
(§3) The results are expressed as a percent of control specific binding obtained in the presence of the test compounds:
(§4) [formula] and as a percent inhibition of control specific binding obtained in the presence of the test compounds: […]

[1] = system: cocaine abuse and dependence; settings: studies (7, 8); vs. placebo; cited from earlier work
[2] = target: T2, Norepinephrine transporter (h) (Homo sapiens, UniProt P23975); assay: Radioligand binding, norepinephrine transporter (Eurofins CEREP); settings: 1.0 × 10^−05 M; antagonist radioligand; read-out: percent inhibition of the binding of a radioactively labeled ligand
T2 construct: Eurofins CEREP
T2 sequence (P23975 whole entry): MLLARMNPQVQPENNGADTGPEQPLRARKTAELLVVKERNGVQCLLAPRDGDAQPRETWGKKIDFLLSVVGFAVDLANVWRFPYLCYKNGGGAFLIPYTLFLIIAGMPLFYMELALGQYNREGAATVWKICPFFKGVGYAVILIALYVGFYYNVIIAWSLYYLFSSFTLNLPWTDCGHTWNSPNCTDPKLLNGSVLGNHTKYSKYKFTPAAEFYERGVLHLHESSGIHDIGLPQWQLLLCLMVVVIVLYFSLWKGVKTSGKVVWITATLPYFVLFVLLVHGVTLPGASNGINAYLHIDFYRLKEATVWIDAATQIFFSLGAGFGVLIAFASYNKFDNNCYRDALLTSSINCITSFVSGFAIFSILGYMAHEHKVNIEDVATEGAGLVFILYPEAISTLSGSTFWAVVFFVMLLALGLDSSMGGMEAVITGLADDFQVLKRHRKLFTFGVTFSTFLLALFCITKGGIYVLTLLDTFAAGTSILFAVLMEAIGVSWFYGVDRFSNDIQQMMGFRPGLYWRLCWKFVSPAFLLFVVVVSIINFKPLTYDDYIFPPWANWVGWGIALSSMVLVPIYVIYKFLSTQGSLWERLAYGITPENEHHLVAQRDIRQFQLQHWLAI
Source text: as §1
as §2, with “curves). Tables B and C display the binding profiles for Mazindol and Met.” for “curves).”
as §3, §4

[3] = Maz 0.125: heroin-treated rats, mazindol 0.125 mg/kg i.p. 30 min before naloxone 5 mg/kg
[4] = Maz 0.25: heroin-treated rats, mazindol 0.25 mg/kg i.p. 30 min before naloxone 5 mg/kg
[5] = Maz 0.5: heroin-treated rats, mazindol 0.5 mg/kg i.p. 30 min before naloxone 5 mg/kg
[6] = Maz 1: heroin-treated rats, mazindol 1 mg/kg i.p. 30 min before naloxone 5 mg/kg
[7] = Maz 2: heroin-treated rats, mazindol 2 mg/kg i.p. 30 min before naloxone 5 mg/kg

OC1(c2ccc(Cl)cc2)c2ccccc2C2=NCCN21 (centres unmarked) [Mazindol, 5-(4-chlorophenyl)-2,5-dihydro-3 H-imadazo[2,1-a]isoindol-5-ol]
Abdominal constrictions score (Abd C) (Sprague-Dawley rats; [3]): 2.8
Abnormal posture score (Ab P) (Sprague-Dawley rats; [3]): 0.0
Chromodacryorrhea score (Chr) (Sprague-Dawley rats; [3]): 2.0
Diarrhea score (Diarr) (Sprague-Dawley rats; [3]): 0.8
Erection or ejaculation score (Er Ej) (Sprague-Dawley rats; [3]): 0.0
Escape attempts score (Esc A) (Sprague-Dawley rats; [3]): 1.0
Facial fasciculation or teeth chattering score (F F T C) (Sprague-Dawley rats; [3]): 1.6
Global Score (Sprague-Dawley rats; [3]): 13.2
Irritability score (Irrit) (Sprague-Dawley rats; [3]): 0.0
Profuse salivation score (Pr Sal) (Sprague-Dawley rats; [3]): 0.0
Ptosis score (Ptos) (Sprague-Dawley rats; [3]): 0.0
Swallowing movements score (Sw M) (Sprague-Dawley rats; [3]): 1.2
Weight loss score (W Los) (Sprague-Dawley rats; [3]): 1.0
Wet dog shakes score (W D S) (Sprague-Dawley rats; [3]): 2.8
Abdominal constrictions score (Abd C) (Sprague-Dawley rats; [4]): 0.0
Abnormal posture score (Ab P) (Sprague-Dawley rats; [4]): 0.0
Chromodacryorrhea score (Chr) (Sprague-Dawley rats; [4]): 0.8
Diarrhea score (Diarr) (Sprague-Dawley rats; [4]): 1.0
Erection or ejaculation score (Er Ej) (Sprague-Dawley rats; [4]): 0.0
Escape attempts score (Esc A) (Sprague-Dawley rats; [4]): 0.7
Facial fasciculation or teeth chattering score (F F T C) (Sprague-Dawley rats; [4]): 2.0
Global Score (Sprague-Dawley rats; [4]): 8.3
Irritability score (Irrit) (Sprague-Dawley rats; [4]): 0.0
Profuse salivation score (Pr Sal) (Sprague-Dawley rats; [4]): 0.0
Ptosis score (Ptos) (Sprague-Dawley rats; [4]): 0.0
Swallowing movements score (Sw M) (Sprague-Dawley rats; [4]): 1.0
Weight loss score (W Los) (Sprague-Dawley rats; [4]): 1.2
Wet dog shakes score (W D S) (Sprague-Dawley rats; [4]): 1.7
Abdominal constrictions score (Abd C) (Sprague-Dawley rats; [5]): 0.0
Abnormal posture score (Ab P) (Sprague-Dawley rats; [5]): 0.0
Chromodacryorrhea score (Chr) (Sprague-Dawley rats; [5]): 0.0
Diarrhea score (Diarr) (Sprague-Dawley rats; [5]): 1.0
Erection or ejaculation score (Er Ej) (Sprague-Dawley rats; [5]): 0.0
Escape attempts score (Esc A) (Sprague-Dawley rats; [5]): 1.7
Facial fasciculation or teeth chattering score (F F T C) (Sprague-Dawley rats; [5]): 2.0
Global Score (Sprague-Dawley rats; [5]): 9.7
Irritability score (Irrit) (Sprague-Dawley rats; [5]): 0.0
Profuse salivation score (Pr Sal) (Sprague-Dawley rats; [5]): 0.0
Ptosis score (Ptos) (Sprague-Dawley rats; [5]): 0.0
Swallowing movements score (Sw M) (Sprague-Dawley rats; [5]): 0.3
Weight loss score (W Los) (Sprague-Dawley rats; [5]): 1.7
Wet dog shakes score (W D S) (Sprague-Dawley rats; [5]): 3.0
Abdominal constrictions score (Abd C) (Sprague-Dawley rats; [6]): 0.0
Abnormal posture score (Ab P) (Sprague-Dawley rats; [6]): 0.0
Chromodacryorrhea score (Chr) (Sprague-Dawley rats; [6]): 1.7
Diarrhea score (Diarr) (Sprague-Dawley rats; [6]): 1.7
Erection or ejaculation score (Er Ej) (Sprague-Dawley rats; [6]): 0.5
Escape attempts score (Esc A) (Sprague-Dawley rats; [6]): 2.5
Facial fasciculation or teeth chattering score (F F T C) (Sprague-Dawley rats; [6]): 2.0
Global Score (Sprague-Dawley rats; [6]): 14.0
Irritability score (Irrit) (Sprague-Dawley rats; [6]): 0.0
Profuse salivation score (Pr Sal) (Sprague-Dawley rats; [6]): 1.2
Ptosis score (Ptos) (Sprague-Dawley rats; [6]): 0.0
Swallowing movements score (Sw M) (Sprague-Dawley rats; [6]): 0.3
Weight loss score (W Los) (Sprague-Dawley rats; [6]): 3.2
Wet dog shakes score (W D S) (Sprague-Dawley rats; [6]): 1.0
Abdominal constrictions score (Abd C) (Sprague-Dawley rats; [7]): 0.0
Abnormal posture score (Ab P) (Sprague-Dawley rats; [7]): 0.6
Chromodacryorrhea score (Chr) (Sprague-Dawley rats; [7]): 1.0
Diarrhea score (Diarr) (Sprague-Dawley rats; [7]): 2.0
Erection or ejaculation score (Er Ej) (Sprague-Dawley rats; [7]): 0.0
Escape attempts score (Esc A) (Sprague-Dawley rats; [7]): 1.6
Facial fasciculation or teeth chattering score (F F T C) (Sprague-Dawley rats; [7]): 0.4
Global Score (Sprague-Dawley rats; [7]): 10.4
Irritability score (Irrit) (Sprague-Dawley rats; [7]): 0.0
Profuse salivation score (Pr Sal) (Sprague-Dawley rats; [7]): 1.4
Ptosis score (Ptos) (Sprague-Dawley rats; [7]): 0.0
Swallowing movements score (Sw M) (Sprague-Dawley rats; [7]): 0.0
Weight loss score (W Los) (Sprague-Dawley rats; [7]): 3.0
Wet dog shakes score (W D S) (Sprague-Dawley rats; [7]): 0.4
effect on the score for escape attempt (Sprague-Dawley rats; mazindol 2 mg/kg): increased
effect on the scores for weight loss and diarrhea (Sprague-Dawley rats; mazindol 0.125-2 mg/kg): Did not significantly reduce
reduction of the global score (FIG. 4) (Sprague-Dawley rats; mazindol 0.125-2 mg/kg): significant at all doses except 0.125 mg/kg
reduction of the score for facial fasciculation or teeth chattering (FIG. 6) (Sprague-Dawley rats; mazindol 0.125-2 mg/kg): significant at 2 mg/kg
reduction of the score for profuse salivation (FIG. 6) (Sprague-Dawley rats; mazindol 0.125-2 mg/kg): significant at all doses except 2 mg/kg
reduction of the score for wet dog shake (FIG. 5) (Sprague-Dawley rats; mazindol 0.125-2 mg/kg): significant effect at 1 and 2 mg/kg
effect on naloxone precipitated withdrawal symptoms of heroin (Sprague-Dawley rats; mazindol, significant at 0.25, 0.5, 1 and 2 mg/kg, but not at 0.125 mg/kg): decreased the naloxone precipitated withdrawal symptoms of heroin
inhibition at 10 µM (5-HT transporter(h)): 99.5%
efficacy in treating cocaine abuse and dependence [1]: ineffective
inhibition at 10 µM [2]: 100%
